These results are taken from US10253004B2, “Indanylaminopyrazinylcyclopropanecarboxylic acids, pharmaceutical compositions and uses thereof” (Boehringer Ingelheim International GmbH, priority 2017, dated 2019).

The structures appear in SMILES notation.

Chain of human GPR40 receptor (O14842 whole entry): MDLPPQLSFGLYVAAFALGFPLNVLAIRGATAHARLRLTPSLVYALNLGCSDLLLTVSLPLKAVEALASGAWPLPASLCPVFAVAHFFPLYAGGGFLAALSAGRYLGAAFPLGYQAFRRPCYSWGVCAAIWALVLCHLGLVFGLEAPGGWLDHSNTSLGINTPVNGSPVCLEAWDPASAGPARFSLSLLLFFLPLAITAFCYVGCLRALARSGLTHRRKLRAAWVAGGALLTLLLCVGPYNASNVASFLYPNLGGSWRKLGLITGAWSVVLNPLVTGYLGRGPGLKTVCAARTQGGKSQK

The test has as its target human GPR40 receptor (Homo sapiens (Human), UniProt O14842). Put plainly: IP1 accumulation measurements using the IPOne assay system. Type of test: cell-based. The following applies: 1321N1 cells stably expressing human GPR40; IP1 accumulation; read-out: EC50. The method, then: IP1 accumulation measurements using the IPOne assay system—1321N1 cells stably expressing human GPR40 receptor (Euroscreen, Belgium) are seeded 24 h before the assay in white 384-well plates in culture medium containing 10% FCS, 1% Na-Pyruvate and 400 μg/mL G418. IP1 is assayed according to the manufacturer's description (Cisbio Bioassays, France). In brief, the assay is started by substitution of the culture medium by stimulation buffer (Hepes 10 mM, CaCl2 1 mM, MgCl2 0.5 mM, KCl 4.2 mM, NaCl 146 mM, glucose 5.5 mM and LiCl 50 mM, pH 7.4). Cells are stimulated for 1 h at 37° C., 5% CO2 by addition of the compounds that are diluted in stimulation buffer containing LiCl. Assays are stopped by adding HTRF-conjugates (IP1-d2 and Anti-IP1 cryptate Tb) and lysis buffer, provided by the manufacturer. After an incubation time of 1 h at room temperature plates are measured using an EnVision™, Perkin Elmer. The obtained fluorescence ratios at 665/615 […] are then used to calculate the pEC50 values using Assay Explorer 3.3 Software (Accelrys, Inc.) by interpolation using an IP1 reference curve and subsequent sigmoidal curve fitting allowing for a variable hill slope.
In general, EC50 refers to the midpoint of the concentration-response curve. For `COc1cc(OC)c(Cl)c(-c2ccc(F)c3c2CC[C@H]3Nc2cnc([C@H]3C[C@@H]3C(=O)O)cn2)c1Cl` [Example 29], the EC50 worked out at 5 nM. For `Cc1cc(OCCCS(C)(=O)=O)cc(C)c1-c1ccc(F)c2c1CC[C@H]2Nc1cnc([C@@H]2C[C@H]2C(=O)O)cn1` [Example 5, (1R,2R)-2-(5-{(R)-7-Fluoro-4-[4-(3-methanesulfonyl-propoxy)-2,6-dimethyl-phenyl]-indan-1-ylamino}-pyrazin-2-yl)-cyclopropanecarboxylic acid] the value was 519 nM.

`COc1cc(C)c(-c2ccc(F)c3c2CC[C@H]3Nc2cnc([C@H]3C[C@@H]3C(=O)O)cn2)c(C)c1` [Example 22]: the EC50 came to 8 nM. On to `Cc1cccc(C)c1-c1ccc(F)c2c1CC[C@H]2Nc1cnc([C@H]2C[C@@H]2C(=O)O)cn1` [Example 15], for which the EC50 came to 7 nM. With `Cc1cc(O[C@@H]2CCOC2)cc(C)c1-c1ccc(F)c2c1CC[C@H]2Nc1cnc([C@H]2C[C@@H]2C(=O)O)cn1` [Example 27] the figure was 13 nM; with `Cc1cc(-c2nnn(C)n2)cc(C)c1-c1cccc2c1CC[C@H]2Nc1cnc([C@H]2C[C@@H]2C(=O)O)cn1` [Example 6, (1S,2S)-2-(5-{(R)-4-[2,6-Dimethyl-4-(2-methyl-2H-tetrazol-5-yl)-phenyl]-indan-1-ylamino}-pyrazin-2-yl)-cyclopropanecarboxylic acid], 3 nM; with `O=C(O)[C@H]1C[C@@H]1c1cnc(N[C@@H]2CCc3c(-c4c(F)cccc4F)ccc(F)c32)cn1` [Example 16], 77 nM.

Take `O=C(O)[C@H]1C[C@@H]1c1cnc(N[C@@H]2CCc3c(-c4c(F)cc(F)cc4F)ccc(F)c32)cn1` [Example 50]: the EC50 came out at 74 nM. With `O=C(O)[C@H]1C[C@@H]1c1cnc(N[C@@H]2CCc3c(-c4ccccc4C(F)(F)F)ccc(F)c32)cn1` [Example 17] the figure was 23 nM. For `Cc1cc(OCC(=O)O)cc(C)c1-c1ccc(F)c2c1CC[C@H]2Nc1cnc([C@H]2C[C@@H]2C(=O)O)cn1` [Example 48] the value was 839 nM; for `O=C(O)[C@H]1C[C@@H]1c1cnc(N[C@@H]2CCc3c(-c4ccc(-c5cnco5)cc4)ccc(F)c32)cn1` [Example 23], 144 nM. For `Cc1cc(OCC2(C)COC2)cc(C)c1-c1ccc(F)c2c1CC[C@H]2Nc1cnc([C@H]2C[C@@H]2C(=O)O)cn1` [Example 32] the value was 7 nM; for `Cc1ccc(Cl)c(-c2ccc(F)c3c2CC[C@H]3Nc2cnc([C@H]3C[C@@H]3C(=O)O)cn2)c1Cl` [Example 21], 4 nM.

As for `O=C(O)[C@H]1C[C@@H]1c1cnc(N[C@@H]2CCc3c(-c4c(F)cc(OC5CC5)cc4F)ccc(F)c32)cn1` [Example 19], the EC50 turned out to be 56 nM.

As for `Cc1cc(OCC2(O)CCS(=O)(=O)CC2)cc(C)c1-c1ccc(F)c2c1CC[C@H]2Nc1cnc([C@H]2C[C@@H]2C(=O)O)cn1` [Example 12], the EC50 is 14 nM.

For the compound `COc1cc(OC)c(F)c(-c2ccc(F)c3c2CC[C@H]3Nc2cnc([C@H]3C[C@@H]3C(=O)O)cn2)c1F` [Example 37], the EC50 amounted to 81 nM. With `Cc1cc(-c2ccnn2C)cc(C)c1-c1ccc(F)c2c1CC[C@H]2Nc1cnc([C@H]2C[C@@H]2C(=O)O)cn1` [Example 36] the figure was 12 nM; with `Cc1cc(OCC2CCOCC2)cc(C)c1-c1ccc(F)c2c1CC[C@H]2Nc1cnc([C@H]2C[C@@H]2C(=O)O)cn1` [Example 13], 4 nM.

On to `Cc1cc(CO)cc(C)c1-c1ccc(F)c2c1CC[C@H]2Nc1cnc([C@H]2C[C@@H]2C(=O)O)cn1` [Example 30], for which the EC50 was 20 nM. For `Cc1cc(OCC2(O)CCOCC2)cc(C)c1-c1ccc(F)c2c1CC[C@H]2Nc1cnc([C@H]2C[C@@H]2C(=O)O)cn1` [Example 41] the value was 11 nM; for `Cc1cc(C(=O)N(C)C)cc(C)c1-c1ccc(F)c2c1CC[C@H]2Nc1cnc([C@H]2C[C@@H]2C(=O)O)cn1` [Example 20], 75 nM. For `Cc1cc(OCCC(C)(C)O)cc(C)c1-c1ccc(F)c2c1CC[C@H]2Nc1cnc([C@@H]2C[C@H]2C(=O)O)cn1` [Example 3, (1R,2R)-2-(5-{(R)-7-Fluoro-4-[4-(3-hydroxy-3-methyl-butoxy)-2,6-dimethyl-phenyl]-indan-1-ylamino}-pyrazin-2-yl)-cyclopropanecarboxylic acid] the value was 164 nM. As to `N#CC1(c2ccccc2-c2ccc(F)c3c2CC[C@H]3Nc2cnc([C@H]3C[C@@H]3C(=O)O)cn2)CC1` [Example 26], the EC50 was determined as 367 nM.

With `CC(C)c1ccccc1-c1ccc(F)c2c1CC[C@H]2Nc1cnc([C@H]2C[C@@H]2C(=O)O)cn1` [Example 40], the EC50 stood at 16 nM. For `Nc1cc(F)c(-c2ccc(F)c3c2CC[C@H]3Nc2cnc([C@H]3C[C@@H]3C(=O)O)cn2)c(F)c1` [Example 18] the value was 150 nM; for `Cc1cc(C(N)=O)cc(C)c1-c1ccc(F)c2c1CC[C@H]2Nc1cnc([C@H]2C[C@@H]2C(=O)O)cn1` [Example 10], 24 nM; for `COc1ccc(-c2cccc3c2CC[C@H]3Nc2cnc([C@H]3C[C@@H]3C(=O)O)cn2)cc1F` [Example 8, (1S,2S)-2-{5-[(R)-4-(3-Fluoro-4-methoxy-phenyl)-indan-1-ylamino]-pyrazin-2-yl}-cyclopropanecarboxylic acid], 163 nM. With `Cc1cc(-c2ccc(=O)n(C)c2)cc(C)c1-c1ccc(F)c2c1CC[C@H]2Nc1cnc([C@H]2C[C@@H]2C(=O)O)cn1` [Example 33] the figure was 6 nM. In the case of `Cc1cc(OCCC(C)(C)O)cc(C)c1-c1ccc(F)c2c1CC[C@H]2Nc1cnc(C2C[C@@H]2C(=O)O)cn1` (stereo partly drawn) [Example 1, trans-2-(5-{(R)-7-Fluoro-4-[4-(3-hydroxy-3-methyl-butoxy)-2,6-dimethyl-phenyl]-indan-1-ylamino}-pyrazin-2-yl)-cyclopropanecarboxylic acid], the concentration for a half-maximal effect (EC50) came to 7 nM. For `Cc1cc(OCC2(O)CCSCC2)cc(C)c1-c1ccc(F)c2c1CC[C@H]2Nc1cnc([C@H]2C[C@@H]2C(=O)O)cn1` [Example 52] the value was 10 nM; for `Cc1cc(-c2cnccn2)cc(C)c1-c1ccc(F)c2c1CC[C@H]2Nc1cnc([C@H]2C[C@@H]2C(=O)O)cn1` [Example 54], 4 nM; for `Cc1cc(-c2nnnn2CC(C)(C)O)cc(C)c1-c1ccc(F)c2c1CC[C@H]2Nc1cnc([C@H]2C[C@@H]2C(=O)O)cn1` [Example 39], 3 nM.

For `Cc1cc(C(=O)O)cc(C)c1-c1ccc(F)c2c1CC[C@H]2Nc1cnc([C@H]2C[C@@H]2C(=O)O)cn1` [Example 14], the EC50 worked out at 355 nM. For `COc1cnc(-c2ccc(-c3cccc4c3CC[C@H]4Nc3cnc([C@H]4C[C@@H]4C(=O)O)cn3)cc2)cn1` [Example 9, (1S,2S)-2-(5-{(R)-4-[4-(5-Methoxy-pyrazin-2-yl)-phenyl]-indan-1-ylamino}-pyrazin-2-yl)-cyclopropanecarboxylic acid] the value was 35 nM; for `Cc1cnc(-c2cc(C)c(-c3ccc(F)c4c3CC[C@H]4Nc3cnc([C@H]4C[C@@H]4C(=O)O)cn3)c(C)c2)nc1` [Example 38], 4 nM; for `Cc1cc(-c2cc(=O)n(C)cn2)cc(C)c1-c1ccc(F)c2c1CC[C@H]2Nc1cnc([C@H]2C[C@@H]2C(=O)O)cn1` [Example 11], 6 nM. For `Cc1cc(C#N)cc(C)c1-c1ccc(F)c2c1CC[C@H]2Nc1cnc([C@H]2C[C@@H]2C(=O)O)cn1` [Example 51] the value was 9 nM; for `O=C(O)[C@H]1C[C@@H]1c1cnc(N[C@@H]2CCc3c(-c4c(Cl)cccc4Cl)ccc(F)c32)cn1` [Example 25], 7 nM; for `Cc1cc(OC2CCOCC2)cc(C)c1-c1ccc(F)c2c1CC[C@H]2Nc1cnc([C@H]2C[C@@H]2C(=O)O)cn1` [Example 31], 9 nM.

On to `Cc1cc(OCC2CCOC2)cc(C)c1-c1ccc(F)c2c1CC[C@H]2Nc1cnc([C@H]2C[C@@H]2C(=O)O)cn1` (stereo partly drawn) [Example 43], for which the EC50 came out at 18 nM. For `COc1cc(OC)c(-c2ccc(F)c3c2CC[C@H]3Nc2cnc([C@H]3C[C@@H]3C(=O)O)cn2)c(OC)c1` [Example 24] the value was 128 nM; for `COc1cc(F)c(-c2ccc(F)c3c2CC[C@H]3Nc2cnc([C@H]3C[C@@H]3C(=O)O)cn2)c(F)c1` [Example 44], 90 nM. For `CCc1cccc(CC)c1-c1ccc(F)c2c1CC[C@H]2Nc1cnc([C@H]2C[C@@H]2C(=O)O)cn1` [Example 49] the value was 4 nM; for `COc1cc(-c2cc(C)c(-c3ccc(F)c4c3CC[C@H]4Nc3cnc([C@H]4C[C@@H]4C(=O)O)cn3)c(C)c2)ccn1` [Example 42], 5 nM; for `CNC(=O)c1cc(C)c(-c2ccc(F)c3c2CC[C@H]3Nc2cnc([C@H]3C[C@@H]3C(=O)O)cn2)c(C)c1` [Example 45], 23 nM.
